In ChEMBL document CHEMBL1201862, “PubChem BioAssay data set” (2004):
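Where inhibition never reached the appropriate level, the endpoint shown equals the highest concentration tested. Otherwise, values were interpolated linearly from a five-concentration, 48-hour dose response in 96-well plates. Abbreviation: GI50, concentration required for 50% inhibition of growth.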 Active and inactive are the calls of the source. Cut-off read from the data, not from the text of the source: active = GI50 up to about 1.1 µM and inactive = higher.

Key:
Assay in all cases: NCI-60 cell line screen, 48 h
HCC 2998 = tested on: HCC 2998
SW-620 = tested on: SW-620
SK-OV-3 = tested on: SK-OV-3
OVCAR-8 = tested on: OVCAR-8
K562 = tested on: K562
NCI-H460 = tested on: NCI-H460
SF-268 = tested on: SF-268
OVCAR-5 = tested on: OVCAR-5
KM12 = tested on: KM12
SN12C = tested on: SN12C
PC-3 = tested on: PC-3
MCF7 = tested on: MCF7
HOP-62 = tested on: HOP-62
HCT-15 = tested on: HCT-15
NCI-H226 = tested on: NCI-H226
SK-MEL-2 = tested on: SK-MEL-2
UACC-257 = tested on: UACC-257
SNB-75 = tested on: SNB-75
HL-60 = tested on: HL-60
NCI-H23 = tested on: NCI-H23
IGROV-1 = tested on: IGROV-1
EKVX = tested on: EKVX
MDA-N = tested on: MDA-N
SF-539 = tested on: SF-539
OVCAR-4 = tested on: OVCAR-4
786-0 = tested on: 786-0
MDA-MB-231 = tested on: MDA-MB-231
SK-MEL-5 = tested on: SK-MEL-5
HCT-116 = tested on: HCT-116
CCRF-CEM = tested on: CCRF-CEM
COLO 205 = tested on: COLO 205
U-251 = tested on: U-251
A498 = tested on: A498
Malme-3M = tested on: Malme-3M
UO-31 = tested on: UO-31
LOX IMVI = tested on: LOX IMVI
SR = tested on: SR
UACC-62 = tested on: UACC-62
MDA-MB-435 = tested on: MDA-MB-435
NCI/ADR-RES = tested on: NCI/ADR-RES
CAKI-1 = tested on: CAKI-1
MOLT-4 = tested on: MOLT-4
SF-295 = tested on: SF-295
ACHN = tested on: ACHN
Hs-578T = tested on: Hs-578T
SK-MEL-28 = tested on: SK-MEL-28
M14 = tested on: M14
HT-29 = tested on: HT-29
TK-10 = tested on: TK-10
SNB-19 = tested on: SNB-19
A549 = tested on: A549
T47D = tested on: T47D
DU-145 = tested on: DU-145
RPMI-8226 = tested on: RPMI-8226
OVCAR-3 = tested on: OVCAR-3
HOP-92 = tested on: HOP-92
NCI-H522 = tested on: NCI-H522
RXF 393 = tested on: RXF 393

Structure (SMILES): C=CCOCn1cnc2c(N)ncnc21
- GI50 (HCC 2998): > 100 µM (inactive)
- GI50 (SW-620): > 100 µM (inactive)
- GI50 (SK-OV-3): > 100 µM (inactive)
- GI50 (OVCAR-8): > 100 µM (inactive)
- GI50 (K562): > 100 µM (inactive)
- GI50 (NCI-H460): > 100 µM (inactive)
- GI50 (SF-268): > 100 µM (inactive)
- GI50 (OVCAR-5): > 100 µM (inactive)
- GI50 (KM12): > 100 µM (inactive)
- GI50 (SN12C): > 100 µM (inactive)
- GI50 (PC-3): > 100 µM (inactive)
- GI50 (MCF7): > 100 µM (inactive)
- GI50 (HOP-62): > 100 µM (inactive)
- GI50 (HCT-15): > 100 µM
- GI50 (NCI-H226): > 100 µM (inactive)
- GI50 (SK-MEL-2): > 100 µM (inactive)
- GI50 (UACC-257): > 100 µM (inactive)
- GI50 (SNB-75): > 100 µM (inactive)
- GI50 (HL-60): > 100 µM (inactive)
- GI50 (NCI-H23): > 100 µM (inactive)
- GI50 (IGROV-1): > 100 µM (inactive)
- GI50 (EKVX): > 100 µM (inactive)
- GI50 (MDA-N): > 100 µM (inactive)
- GI50 (SF-539): > 100 µM (inactive)
- GI50 (OVCAR-4): > 100 µM (inactive)
- GI50 (786-0): > 100 µM (inactive)
- GI50 (MDA-MB-231): > 100 µM (inactive)
- GI50 (SK-MEL-5): > 100 µM (inactive)
- GI50 (HCT-116): > 100 µM (inactive)
- GI50 (CCRF-CEM): > 100 µM (inactive)
- GI50 (COLO 205): > 100 µM (inactive)
- GI50 (U-251): > 100 µM (inactive)
- GI50 (A498): > 100 µM (inactive)
- GI50 (Malme-3M): > 100 µM (inactive)
- GI50 (UO-31): > 100 µM (inactive)
- GI50 (LOX IMVI): > 100 µM (inactive)
- GI50 (SR): > 100 µM (inactive)
- GI50 (UACC-62): > 100 µM (inactive)
- GI50 (MDA-MB-435): > 100 µM (inactive)
- GI50 (NCI/ADR-RES): > 100 µM (inactive)
- GI50 (CAKI-1): > 100 µM (inactive)
- GI50 (MOLT-4): > 100 µM (inactive)
- GI50 (SF-295): > 100 µM (inactive)
- GI50 (ACHN): > 100 µM (inactive)
- GI50 (Hs-578T): > 100 µM (inactive)
- GI50 (SK-MEL-28): > 100 µM (inactive)
- GI50 (M14): > 100 µM (inactive)
- GI50 (HT-29): > 100 µM (inactive)
- GI50 (TK-10): > 100 µM (inactive)
- GI50 (SNB-19): > 100 µM (inactive)
- GI50 (A549): > 100 µM (inactive)
- GI50 (T47D): > 100 µM (inactive)
- GI50 (DU-145): > 100 µM (inactive)
- GI50 (RPMI-8226): > 100 µM (inactive)

Structure (SMILES): COP(=O)(OC)/C(=C/c1cn(C(C)=O)c2ccccc12)NC(C)=O
- GI50 (HCC 2998): > 10 µM (inactive)
- GI50 (SW-620): 18.5 µM (inactive)
- GI50 (SK-OV-3): > 100 µM (inactive)
- GI50 (OVCAR-8): 32.2 µM (inactive)
- GI50 (K562): 6.75 µM (inactive)
- GI50 (NCI-H460): 52.5 µM (inactive)
- GI50 (OVCAR-5): > 100 µM (inactive)
- GI50 (SN12C): 31.6 µM (inactive)
- GI50 (PC-3): 22.4 µM (inactive)
- GI50 (MCF7): 8.91 µM (inactive)
- GI50 (HOP-62): 41.3 µM (inactive)
- GI50 (HCT-15): 18.1 µM
- GI50 (SK-MEL-2): 2.18 µM (inactive)
- GI50 (UACC-257): > 100 µM (inactive)
- GI50 (OVCAR-3): 21.3 µM (inactive)
- GI50 (SNB-75): 49.2 µM (inactive)
- GI50 (HL-60): 13.1 µM (inactive)
- GI50 (HOP-92): > 10 µM (inactive)
- GI50 (NCI-H23): 37.7 µM (inactive)
- GI50 (IGROV-1): 54.8 µM (inactive)
- GI50 (MDA-N): 13.8 µM (inactive)
- GI50 (OVCAR-4): 33.2 µM (inactive)
- GI50 (MDA-MB-231): 36.1 µM (inactive)
- GI50 (SK-MEL-5): 22.1 µM (inactive)
- GI50 (HCT-116): 26.4 µM (inactive)
- GI50 (CCRF-CEM): 16.7 µM (inactive)
- GI50 (COLO 205): 61.4 µM (inactive)
- GI50 (U-251): 33.2 µM (inactive)
- GI50 (A498): 16.6 µM (inactive)
- GI50 (LOX IMVI): 13 µM (inactive)
- GI50 (SR): 15.8 µM (inactive)
- GI50 (MDA-MB-435): 4.62 µM (inactive)
- GI50 (NCI/ADR-RES): 28.8 µM (inactive)
- GI50 (CAKI-1): 40.9 µM (inactive)
- GI50 (MOLT-4): > 10 µM (inactive)
- GI50 (SF-295): 37.2 µM (inactive)
- GI50 (ACHN): 53 µM (inactive)
- GI50 (Hs-578T): 35.4 µM (inactive)
- GI50 (SK-MEL-28): 36.4 µM (inactive)
- GI50 (M14): 41.8 µM (inactive)
- GI50 (HT-29): 41.6 µM (inactive)
- GI50 (TK-10): 58.2 µM (inactive)
- GI50 (NCI-H522): > 100 µM (inactive)
- GI50 (A549): > 100 µM (inactive)
- GI50 (T47D): 38.5 µM (inactive)
- GI50 (DU-145): > 100 µM (inactive)
- GI50 (RPMI-8226): 12.6 µM (inactive)

Structure (SMILES): Cc1nc2c(nc1C)-c1[nH]c3c(c1C(=O)C2=O)CCCC3=O
- GI50 (HCC 2998): 2.08 µM (inactive)
- GI50 (SW-620): 1.95 µM (inactive)
- GI50 (SK-OV-3): 2.4 µM (inactive)
- GI50 (OVCAR-8): 1.5 µM (inactive)
- GI50 (K562): 2.03 µM (inactive)
- GI50 (NCI-H460): 3.94 µM (inactive)
- GI50 (SF-268): 1.47 µM (inactive)
- GI50 (OVCAR-5): 2.18 µM (inactive)
- GI50 (KM12): 1.95 µM (inactive)
- GI50 (SN12C): 1.77 µM (inactive)
- GI50 (PC-3): 4.25 µM (inactive)
- GI50 (MCF7): 1.38 µM (inactive)
- GI50 (RXF 393): 0.516 µM (active)
- GI50 (HOP-62): 2.32 µM (inactive)
- GI50 (HCT-15): 2.81 µM
- GI50 (NCI-H226): 1.62 µM (inactive)
- GI50 (SK-MEL-2): 1.79 µM (inactive)
- GI50 (UACC-257): 2.02 µM (inactive)
- GI50 (SNB-75): 1.77 µM (inactive)
- GI50 (HL-60): 2.42 µM (inactive)
- GI50 (HOP-92): 1.69 µM (inactive)
- GI50 (NCI-H23): 1.93 µM (inactive)
- GI50 (IGROV-1): 2.55 µM (inactive)
- GI50 (EKVX): 1.48 µM (inactive)
- GI50 (MDA-N): 0.685 µM (active)
- GI50 (SF-539): 1.68 µM (inactive)
- GI50 (OVCAR-4): 1.6 µM (inactive)
- GI50 (786-0): 2.54 µM (inactive)
- GI50 (MDA-MB-231): 1.59 µM (inactive)
- GI50 (SK-MEL-5): 1.49 µM (inactive)
- GI50 (HCT-116): 2.54 µM (inactive)
- GI50 (CCRF-CEM): 1.91 µM (inactive)
- GI50 (COLO 205): 2.88 µM (inactive)
- GI50 (U-251): 1.34 µM (inactive)
- GI50 (A498): 8.3 µM (inactive)
- GI50 (Malme-3M): 1.29 µM (inactive)
- GI50 (UO-31): 4.02 µM (inactive)
- GI50 (LOX IMVI): 0.957 µM (active)
- GI50 (SR): 2.08 µM (inactive)
- GI50 (UACC-62): 1.71 µM (inactive)
- GI50 (MDA-MB-435): 0.483 µM (active)
- GI50 (NCI/ADR-RES): 2.25 µM (inactive)
- GI50 (MOLT-4): 2.23 µM (inactive)
- GI50 (SF-295): 1.79 µM (inactive)
- GI50 (ACHN): 2.64 µM (inactive)
- GI50 (Hs-578T): 3.66 µM (inactive)
- GI50 (SK-MEL-28): 1.71 µM (inactive)
- GI50 (M14): 1.77 µM (inactive)
- GI50 (HT-29): 5.74 µM (inactive)
- GI50 (TK-10): 17.5 µM (inactive)
- GI50 (SNB-19): 2.33 µM (inactive)
- GI50 (NCI-H522): 2.1 µM (inactive)
- GI50 (A549): 3.87 µM (inactive)
- GI50 (T47D): 0.592 µM (active)
- GI50 (DU-145): 4.49 µM (inactive)
- GI50 (RPMI-8226): 1.25 µM (inactive)
